Experimental data reported in US11510917B2, “HIF-stabilization and prevention of hyperoxia-induced neonatal lung disease” (CORNELL UNIVERSITY, priority 2016, dated 2022).

Experiments:
[1] = tested on: neonatal mice chronically exposed to hyperoxia; assay: Oxygen-induced lung injury, lung airspace analysis (chord length Lm); assay type: in vivo, mouse; conditions: for alveolar enlargement, lung histology: 80% O2, 200 mg/kg i.p. intermittent during oxygen supplementation (Example 3); for protection of alveolar size (Lm) against moderate hyperoxia: about 45% O2, 2- and 5-week time points
Text: For this study we utilized a well-defined murine model of CLD using neonatal mice chronically exposed to hyperoxia for 2 weeks followed by normoxia for an additional 3. Timed pregnant mice were monitored hourly. Within hours of birth litters were pooled before being randomly redistributed to the newly delivered mothers. Experiments were begun on newborns at postnatal day 0. Half of the newborn pups were placed in a chamber designed to deliver variable oxygen concentrations (Biospherix Ltd) and set to 80% O2 (HO) and the other half remained in room air (RA) as age-matched controls. Mothers were rotated every 12 hours to prevent death from acute O2 toxicity. Neonatal CD1 mice also referred to as wild-type mice (Charles River), MCD mice (WBB6F1^−W/Wv) and their mast cell competent litter mates WBB6F1-^+/^+ (congenic controls (CC)) (Jackson Laboratories) were exposed to either HO or RA for 2 weeks and then kept in room air (FiO2 of 0.21) an additional 3 weeks for the 5-week time point. Some CD1 mice (HO and RA) were also maintained 18 weeks in room air for the 20-week time point. Survival and weight were monitored daily. All mice (CD1, MCD, and CC) used in this study were healthy at birth and survived until sacrificed. Unless specifically noted as CC or MCD, mouse experiments were performed with CD1 mice.
Oxygen-induced lung injury and lung airspace analysis. A well-defined murine model of CLD, a.k.a. bronchopulmonary dysplasia, using neonatal mice chronically exposed to hyperoxia followed by normoxia was used for our studies. Timed pregnant CD1 mice (Charles River) were monitored hourly. Within hours of birth litters were pooled before being randomly redistributed to the newly delivered mothers. Half of the newborn pups were immediately placed in a chamber designed to deliver variable oxygen concentrations (Biospherix) and set to 80%, 45% or 30% O2 (hyperoxia) and the other half remained in room air. Mothers were rotated every 12 hrs to prevent death from acute O2 toxicity. Newborn pups were exposed to either hyperoxia or room air for 2 weeks. […] Some animals were then kept in room air for an additional 3 weeks or 18 weeks before analysis. Lungs from mice were fixed at a constant inflation pressure of 25 cm H2O in 10% neutral buffered formalin followed by paraffin embedding. Sections (7 μm) were cut and slides of paraffinized tissue sections were deparaffinized, rehydrated, and washed in distilled water. Sections were stained with hematoxylin and eosin to visualize the structure of the lung. The direct method was used for the accurate estimation of the mean linear intercept length (Lm) (chord length) to assess the mean free distance in the alveoli. This method uses a set of random intercepts and calculates Lm from their frequency distribution and provides results on alveolar size distribution and alveolar surface area. […] On average 30-50 non-overlapping 1 mm^2 fields were analyzed for each lung section. Mean chord length of each alveolus (μm) was measured with the areas of approximately 4,000 individual alveoli/mouse measured in sections from room air mice and about 2,000 individual alveoli/mouse were analyzed in lung sections from hyperoxic mice.
The direct method was used for the accurate estimation of the mean linear intercept length (Lm) (chord length) to assess the mean free distance in the alveoli. […] On average 30-50 non-overlapping 1 mm^2fields were analyzed for each lung section and mean chord length of each alveolus (μm) was measured.

[2] = tested on: HIF PHD; assay: luc-ODD luciferase reporter, live imaging and organ lysates; assay type: in vivo, mouse
Description: Detection of luc-ODD luciferase reporter in vivo and in vitro. Live imaging of luciferase activity was performed using Bruker Xtreme small animal x-ray, fluorescence bioluminescence imaging system. Luc-ODD mouse pups at 12 days of age (P12) were divided into appropriate experimental groups identified by ear notches and treated according to the experimental design, i.e., various length of pharmacological treatment (0, 3, 9, 24 hrs), or route of administration (intraperitoneal vs subcutaneous for 3 hrs). […] Ten minutes later, pups (in groups of 2 to 4) were placed in an imaging chamber supplied with a heated pad and inhalation cones for oxygen/isofurane mixture. Ventral and dorsal bioluminescent images were collected for 30 sec followed by white light images taken at autoexposure time. Light and luminescent images where then superimposed and quantitatively analyzed using Bruker MI v7 software. Luciferase activity in mouse organs was detected as follows. […] Tissues were placed in Glo Lysis Buffer (Promega), homogenized with disposable plastic pestles fitted to 1.5 mL microtubes on ice and centrifuged at 20,000×g, 4° C., for 15 min. Protein concentrations of tissue extracts were determined using BCA Protein Assay (Thermo Sci), adjusted to 150 ug (retina), 300 ug (kidney, spleen, lung) or 600 ug (brain, liver) per assay reaction by diluting with Glo Lysis Buffer in a total volume of 100 uL and placed in the wells of white opaque 96-well plate. Diluted extracts were then brought to room temperature, mixed with equal volume (100 uL) of ready-to-use luciferase substrate Bright-Glo Luciferase Assay System (Promega) and luminescence was measured immediately by a luminometer/fluorimeter Victor X2 (PerkinElmer).

[3] = tested on: Mast cells; assay: Mast cell protease (tryptase, chymase) abundance by Western blot; assay type: cell-based; conditions: high oxygen (80%)
Text: FIG. 14. […] Mast cells express tryptase and chymase. […] N=4 separate blots, different samples. Aliquots of purified TA and HMC-1 exosomes were homogenized and the protein amounts determined by Lowry assay. Primary antibodies used were: mouse monoclonal TSG 101 (Santa Cruz sc-7964) at 1:500 dilution, mouse monoclonal Alix (Cell Signaling, 2171) at 1:1000 dilution, rabbit polyclonal CD63 (Santa Cruz, sc-15363) at 1:500 dilution, rabbit polyclonal chymase at a 1:2500 dilution (Abcam, 186417), mouse monoclonal mast cell tryptase (Abcam, ab2378) at 1:3000 dilution, rabbit polyclonal elastase (Abcam, ab68672) at 1:1000 dilution, mouse monoclonal mast cell CPA3 (Abcam, ab72575) at 1:500 dilution, and mouse monoclonal GAPDH (Cell Signaling, 14C10) and β-actin (Cell Signaling, 3700) at 1:100,000 dilution. GAPDH and β-actin were used as loading controls.

[4] = tested on: Hep3B cells; assay: HIF-1α stabilization and EPO expression in cultured hepatoma cells; assay type: cell-based, human
[5] = tested on: lung mast cells; assay: Lung mast cell number after neonatal hyperoxia; assay type: in vivo, mouse; conditions: 10 mg/kg, 5-week time point
Text: Lungs from mice (CD1, MCD and CC), not undergoing pulmonary function testing, were fixed at a constant inflation pressure of 25 cm H2O in 10% neutral buffered formalin followed by paraffin embedding. Slides with 7 μm sections were deparaffinized, rehydrated, and washed in distilled water. Some sections were stained with hematoxylin and eosin (H&E) to visualize the structure of the lung. Other sections were stained with an antibody (CC10) (Santa Cruz Biotechnology) (1:50 dilution) to detect club cells, a cell type specific to the airways. Analysis on the alveolar space deliberately avoided airways and blood vessels. For each animal, 5 lung sections were analyzed and quantified as cells per mm^2 of lung tissue. Mast cells were detected in fixed tissue using either the glycoprotein avidin, conjugated to the enzyme horseradish peroxidase (HRP) (Vector Laboratories) or toluidine blue, the classic metachromatic stain for mast cells. Conjugated avidin is a well-defined histochemical method for identifying rodent and human mast cells, which express chondroitin sulfate E proteoglycans and heparin proteoglycans, respectively, in the secretory granules, binding specifically to the proteoglycan granules. Non-specific staining of biotin or biotin-like molecules previously reported […]. Deparaffinized sections were exposed to avidin-HRP 1:500. […]

[6] = tested on: HIF-1α; assay: Western blot of HIF-1α protein in mouse organs; assay type: in vivo
[7] = tested on: EPO; assay: ELISA of serum EPO; assay type: in vivo, mouse
[8] = tested on: neonatal mice chronically exposed to hyperoxia; assay: Pulmonary function test of lung compliance after neonatal hyperoxia; assay type: in vivo, mouse; conditions: 80% neonatal hyperoxia; intermittent treatment
Description: Pulmonary function tests (PFTs) were performed in 5- (CD1, MCD and CC) and 20-week old mice (CD1) post-neonatal HO or RA. Briefly, mice were anaesthetized with pentobarbital (100 mg/kg, intraperitoneal; American Pharmaceutical Partners), tracheostomized and mechanically ventilated at a rate of 150 breaths/min, a tidal volume of 10 ml/kg and positive end-expiratory pressure of 2-3 cm H2O using a computer-controlled animal ventilator (Sireq). The following perturbations were used to assess baseline respiratory mechanics and analyzed using Flexivent software (Sireq). Static lung compliance (Cst) was determined using the Salazar-Knowles equation applied to the plateau pressure measurements obtained between total lung capacity and functional residual capacity. Broadband forced oscillations were applied to determine tissue resistance (R) and Newtonian (airway) resistance (Rn) using a constant phase model. Mice used for measuring pulmonary function were not used for histological analyses.

[9] = kidney and liver, single i.p. injection

SMILES | alveolar enlargement, lung histology [1] | alveolar size by chord length (Lm) ([1]; 80% O2 first 2 weeks then 3 weeks room air, 10 mg/kg s.c. intermittent, CD1 pups, 5-week time point, 10 mg/kg) | protection of alveolar size (Lm) against moderate hyperoxia ([1]; CD1 pups) | protection of alveolar size (Lm) against moderate hyperoxia ([1]; CD1 pups, listed as RXD) | duration of HIF PHD inhibition [2, 9] | half-life of HIF PHD inhibition [2, 9] | organs with highest luminescence ([2]; luc-ODD mouse, ventral and dorsal views, i.p. or s.c. injection) | luciferase activity over baseline ([2]; tissue lysates, liver) | hyperoxia-induced tryptase and chymase abundance [3] | hyperoxia-induced tryptase and chymase abundance ([3]; listed as RXD) | HIF-1α stabilization and expression of EPO mRNA and protein [4] | lung mast cell increase ([5]; moderate (45%) hyperoxia) | lung mast cell increase ([5]; severe (80%) hyperoxia) | increase of HIF-1α protein ([6]; liver and kidney) | increase of HIF-1α protein ([6]; spleen, lung, brain, and retina) | time of maximal increase in serum erythropoietin (EPO) ([7]; after i.p. injection) | dose of maximal effect, serum EPO as marker of HIF-1 activity ([7]; dose response in the mouse) | increase in serum EPO protein concentration ([7]; i.p. 10 mg/kg, P8 pups) | lung compliance [8]
Cc1nc(C(=O)NCC(=O)O)c(O)c2ccc(Oc3ccccc3)cc12 [Roxadustat, N-[(4-hydroxy-1-methyl-7-phenoxyisoquinolin-3-yl)carbonyl]glycine] | reduced | statistically significant normalization in alveolar size | statistically significant normalization in alveolar size | protective | at least 24 hours | 48 to 72 h | liver and kidney | 6 fold | decreases | decreased | can be recapitulated | prevents the increase in mast cells | prevents the increase in mast cells | 5-10 fold | two-fold increase | 6 h | 10 mg/kg bodyweight | 8 fold | 
COC(=O)CNC(=O)C(=O)OC [DMOG, N-(2-Methoxy-2-oxaoacetyl)glycine methyl ester] | normalizes alveolar enlargement |  |  |  |  |  |  |  |  |  |  |  |  |  |  |  |  |  | maintains normal lung compliance
